Assay results from patent publication US20230183248A1, “PYRROLO[1,2-D][1,2,4]TRIAZINE-2-YL-ACETAMIDES AS INHIBITORS OF THE NLRP3 INFLAMMASOME PATHWAY” (JANSSEN PHARMACEUTICA NV, priority 2020, published 2023).

Legend:
[1] = system: TNF; test: PBMC assay: LPS-stimulated TNF cytokine levels; assay type: cell-based; conditions: human PBMCs, 30 min compound pre-incubation, 100 ng/ml LPS for 6 hrs, supernatant, MSD
Method: (§1) Peripheral venous blood was collected from healthy individuals and human peripheral blood mononuclear cells (PBMCs) were isolated from blood by Ficoll-Histopaque (Sigma-Aldrich, A0561) density gradient centrifugation. After isolation, PBMCs were stored in liquid nitrogen for later use. Upon thawing, PBMC cell viability was determined in growth medium (RPMI media supplemented with 10% fetal bovine serum, 1% Pen-Strep and 1% L-glutamine). Compounds were spotted in a 1:3 serial dilution in DMSO and diluted to the final concentration in 30 µl medium in 96 well plates (Falcon, 353072). PBMCs were added at a density of 7.5 × 10^4 cells per well and incubated for 30 min in a 5% CO2 incubator at 37° C. LPS stimulation was performed by addition of 100 ng/ml LPS (final concentration, Invivogen, tlrl-smlps) for 6 hrs followed by collection of cellular supernatant and the analysis of IL-1β […] and TNF cytokines levels (µM) via MSD technology according to manufacturers’ guidelines (MSD, K151A0H).
(§2) The IC50 values (for IL-1β) and EC50 values (TNF) were obtained on compounds of the invention/examples, and are depicted in the following table: […]

[2] = system: IL-1β; test: PBMC assay: LPS-stimulated IL-1β release; assay type: cell-based; conditions: human PBMCs, 30 min compound pre-incubation, 100 ng/ml LPS for 6 hrs, supernatant, MSD
Method: as §1, §2

| Compound | EC50 ([1]; Homo sapiens, PBMC) [µM] | IC50 ([2]; Homo sapiens, PBMC) [µM] | EC50 [1] [µM] | IC50 [2] [µM] |
| --- | --- | --- | --- | --- |
| CC(C)c1nn(CC(=O)Nc2ccncn2)c(=O)c2cc(Br)cn12 [Compound 1F, 2-(7-bromo-4-isopropyl-1-oxo-pyrrolo[1,2-d][1,2,4]triazin-2-yl)-N-pyrimidin-4-yl-acetamide] | > 10 | 0.71 | – | – |
| CC(C)c1nn(CC(=O)Nc2ccncc2F)c(=O)c2cc(Br)cn12 [Compound 2F] | – | – | > 10 | 1.26 |
| COCc1cc2c(=O)n(CC(=O)Nc3ccncn3)nc(C(C)C)n2c1 [Compound 3F] | > 10 | 7.85 | – | – |
| CC(C)c1nn(CC(=O)Nc2ccncc2F)c(=O)c2cc(I)cn12 [Compound 4F, N-(3-fluoro-4-pyridyl)-2-(7-iodo-4-isopropyl-1-oxo-pyrrolo[1,2-d][1,2,4]triazin-2-yl)acetamide] | > 10 | 0.25 | – | – |
| CC(C)c1nn(CC(=O)Nc2ccncn2)c(=O)c2cc(I)cn12 [Compound 5F, 2-(7-iodo-4-isopropyl-1-oxo-pyrrolo[1,2-d][1,2,4]triazin-2-yl)-N-pyrimidin-4-yl-acetamide] | > 10 | – | – | – |
| CC(C)c1nn(CC(=O)Nc2ccncn2)c(=O)c2cc(Cl)cn12 [Compound 6F] | > 10 | 3.67 | – | – |
| CC(C)c1nn(CC(=O)Nc2cccnc2)c(=O)c2cc(Br)cn12 [Compound 8F] | > 10 | 4.24 | – | – |
| CC(C)c1nn(CC(=O)Nc2ccncc2F)c(=O)c2cc(Br)cn12 [Compound 10F] | > 10 | 0.89 | – | – |
| CC(C)c1nn(CC(=O)Nc2ccncn2)c(=O)c2cccn12 [Compound 11F] | > 10 | > 10 | – | – |
| CC(C)c1nn(CC(=O)Nc2ccncn2)c(=O)c2cc(CO)cn12 [Compound 12F] | > 10 | 9.86 | – | – |
| C=Cc1cc2c(=O)n(CC(=O)Nc3ccncn3)nc(C(C)C)n2c1 [Compound 17F] | > 10 | 1.13 | – | – |
| CC(C)c1cc2c(=O)n(CC(=O)Nc3ccncc3F)nc(C(C)C)n2c1 [Compound 18F] | > 10 | 0.33 | – | – |
| CC(C)c1cc2c(=O)n(CC(=O)Nc3ccncn3)nc(C(C)C)n2c1 [Compound 19F] | > 10 | 0.35 | – | – |
| CCc1nn(CC(=O)Nc2ccncn2)c(=O)c2cc(C3CC3)cn12 [Compound 20F] | > 10 | 0.59 | – | – |
| CCc1nn(CC(=O)Nc2ccncc2F)c(=O)c2cc(C3CC3)cn12 [Compound 21F] | > 10 | 0.68 | – | – |
| CCc1cc2c(=O)n(CC(=O)Nc3ccncn3)nc(C(C)C)n2c1 [Compound 23F] | > 10 | 0.28 | – | – |
| CC(C)c1cc2c(=O)n(CC(=O)Nc3ccncn3)nc(N3CCOCC3)n2c1 [Compound 25F] | > 10 | > 10 | – | – |
| CC(C)c1nn(CC(=O)Nc2ccncn2)c(=O)c2cc(C3CCC3)cn12 [Compound 30F, 2-(7-cyclobutyl-4-isopropyl-1-oxo-pyrrolo[1,2-d][1,2,4]triazin-2-yl)-N-pyrimidin-4-yl-acetamide] | > 10 | 0.99 | – | – |
| COC(C)c1nn(CC(=O)Nc2ccncn2)c(=O)c2cc(C(C)C)cn12 (centres unmarked) [Compound 31F, 2-[7-isopropyl-4-(1-methoxyethyl)-1-oxo-pyrrolo[1,2-d][1,2,4]triazin-2-yl]-N-pyrimidin-4-yl-acetamide] | > 10 | 5.14 | – | – |
| CC(C)c1nn(CC(=O)Nc2ccncc2F)c(=O)c2cc(C(F)(F)F)cn12 [Compound 32F, N-(3-fluoro-4-pyridyl)-2-[4-isopropyl-1-oxo-7-(trifluoromethyl)pyrrolo[1,2-d][1,2,4]triazin-2-yl]acetamide] | > 10 | 1.5 | – | – |
| CC(C)c1nn(CC(=O)Nc2ccncn2)c(=O)c2cc(CCC(F)(F)F)cn12 [Compound 33F, 2-[4-isopropyl-1-oxo-7-(3,3,3-trifluoropropyl)pyrrolo[1,2-d][1,2,4]triazin-2-yl]-N-pyrimidin-4-yl-acetamide] | > 10 | 3.62 | – | – |
| CC(C)Cc1cc2c(=O)n(CC(=O)Nc3ccncn3)nc(C(C)C)n2c1 [Compound 34F, 2-(7-isobutyl-4-isopropyl-1-oxo-pyrrolo[1,2-d][1,2,4]triazin-2-yl)-N-pyrimidin-4-yl-acetamide] | > 10 | 3.84 | – | – |
| CC(C)c1cc2c(=O)n(CC(=O)Nc3ccncn3)nc(C(C)(C)O)n2c1 [Compound 37F, 2-[4-(1-hydroxy-1-methyl-ethyl)-7-isopropyl-1-oxo-pyrrolo[1,2-d][1,2,4]triazin-2-yl]-N-pyrimidin-4-yl-acetamide] | > 10 | 4.28 | – | – |
| CC(C)c1nn(CC(=O)Nc2ccncn2)c(=O)c2cc(C(C)F)cn12 (centres unmarked) [Compound 39F, 2-[7-(1-fluoroethyl)-4-isopropyl-1-oxo-pyrrolo[1,2-d][1,2,4]triazin-2-yl]-N-pyrimidin-4-yl-acetamide] | > 10 | 4.31 | – | – |

| Compound | EC50 ([1]; Homo sapiens, PBMC) [µM] | IC50 ([2]; Homo sapiens, PBMC) [µM] | EC50 [1] [µM] | IC50 [2] [µM] |
| --- | --- | --- | --- | --- |
| CCOC(C)c1nn(CC(=O)Nc2ccncn2)c(=O)c2cc(C(C)C)cn12 (centres unmarked) [Compound 40F] | > 10 | 8.13 | – | – |
| CC(C)c1nn(CC(=O)Nc2ccncn2)c(=O)c2cc(C#N)cn12 [Compound 42F] | > 10 | > 10 | – | – |
| CC(C)c1nn(CC(=O)Nc2ccncn2)c(=O)c2cc(CN(C)C)cn12 [Compound 43F, 2-(7-((dimethylamino)methyl)-4-isopropyl-1-oxopyrrolo[1,2-d][1,2,4]triazin-2(1H)-yl)-N-(pyrimidin-4-yl)acetamide] | > 10 | > 10 | – | – |
| CNCc1cc2c(=O)n(CC(=O)Nc3ccncn3)nc(C(C)C)n2c1 [Compound 44F] | > 10 | > 10 | – | – |
| CC(C)c1cc2c(=O)n(CC(=O)Nc3ccncn3)nc(C3CNC3)n2c1 [Compound 45F] | > 10 | > 10 | – | – |
| CC(=O)N1CC(c2nn(CC(=O)Nc3ccncn3)c(=O)c3cc(C(C)C)cn23)C1 [Compound 46F] | > 10 | > 10 | – | – |
| CC(C)c1nn(CC(=O)Nc2ccncc2F)c(=O)c2cc(F)cn12 [Compound 52F] | > 10 | > 10 | – | – |
| COc1nn(CC(=O)Nc2ccncn2)c(=O)c2cc(C(C)C)cn12 [Compound 53F] | > 10 | 1.37 | – | 1.88 |
| CCCc1cc2c(=O)n(CC(=O)Nc3ccncn3)nc(OC)n2c1 [Compound 54F] | > 10 | 2.51 | – | – |
| CC(C)c1cc2c(=O)n(CC(=O)Nc3ccncn3)nc(N(C)CC3CC3)n2c1 [Compound 57F] | > 10 | 1.66 | – | – |
| CCCCc1nn(CC(=O)N[C@H]2C[C@@](C)(O)C2)c(=O)c2cc(C(C)C)cn12 [Compound 60F] | > 10 | 1.47 | – | – |
| CC(C)c1cc2c(=O)n(CC(=O)N[C@H]3C[C@@](C)(O)C3)nc(C(C)OC3CC3)n2c1 (some centres unmarked) [Compound 62F] | > 10 | 2.23 | – | – |
| COc1nn(CC(=O)NC2CCOCC2)c(=O)c2cc(C(C)C)cn12 [Compound 66F] | > 10 | 5.04 | – | – |
| CC(C)c1cc2c(=O)n(CC(=O)N[C@@H]3CCCN(C4CCC4)C3)nc(C(C)C)n2c1 [Compound 67F] | > 10 | – | – | – |
| CC(C)c1cc2c(=O)n(CC(=O)Nc3ccc4nncn4c3)nc(C(C)C)n2c1 [Compound 69F] | – | 0.28 | – | – |
| CC(=O)N(C)Cc1cc2c(=O)n(CC(=O)Nc3ccncn3)nc(C(C)C)n2c1 [Compound 70F, N-((4-isopropyl-1-oxo-2-(2-oxo-2-(pyrimidin-4-ylamino)ethyl)-1,2-dihydropyrrolo[1,2-d][1,2,4]triazin-7-yl)methyl)-N-methylacetamide] | > 10 | > 10 | – | – |
| CC(C)c1nn(CC(=O)Nc2ccc3nncn3c2)c(=O)c2cc(I)cn12 [Compound 71F] | 19.8 | 0.14 | > 10 | 0.26 |
| CC(C)c1nn(CC(=O)N[C@H]2C[C@@](C)(O)C2)c(=O)c2cc(I)cn12 [Compound 72F] | > 10 | 0.24 | – | – |
| CC(C)c1nn(CC(=O)Nc2ccncn2)c(=O)c2cc(Cc3ccccc3)cn12 [Compound 75F] | > 10 | > 10 | – | – |
| CNC(=O)c1cc2c(=O)n(CC(=O)Nc3ccncn3)nc(C(C)C)n2c1 [Compound 76F, 4-isopropyl-N-methyl-1-oxo-2-(2-oxo-2-(pyrimidin-4-ylamino)ethyl)-1,2-dihydropyrrolo[1,2-d][1,2,4]triazine-7-carboxamide] | > 10 | > 10 | – | – |
| CC(C)c1nn(CC(=O)Nc2ccncn2)c(=O)c2cc(C(=O)N(C)C)cn12 [Compound 77F] | > 10 | > 10 | – | – |
| CC(C)c1nn(CC(=O)Nc2ccncn2)c(=O)c2cc(CCCF)cn12 [Compound 78F, 2-(7-(3-fluoropropyl)-4-isopropyl-1-oxopyrrolo[1,2-d][1,2,4]triazin-2(1H)-yl)-N-(pyrimidin-4-yl)acetamide] | > 10 | 2.33 | – | – |
| CC(C)c1nn(CC(=O)Nc2ccncn2)c(=O)c2cc(C3CCOCC3)cn12 [Compound 79F] | > 10 | > 10 | – | – |
| CC(C)c1nn(CC(=O)Nc2ccncn2)c(=O)c2cc(CC3CC(=O)N(C)C3)cn12 (centres unmarked) [Compound 81F] | – | > 10 | – | – |
